Reference: US6900198B2, “Synthetic catalytic free radical scavengers useful as antioxidants for prevention and therapy of disease” (Eukarion, Inc., priority 1995, dated 2005)
Blank lines part the entries; values can stand above or below the molecule they belong to.

What was measured:
[1] = tested on: Human dermal fibroblasts (HF cells); assay: Protection against t-butyl hydroperoxide toxicity in human fibroblasts (XTT); type: cell-based; conditions: 80 μM with 0.5 mM t-BHP
Procedure: (§1) Human dermal fibroblasts (HF cells) were obtained from the American type tissue Culture Collection at passage 1 and cultured and propagated in a medium (HF medium) consisting of Dulbecco's Modified Eagle's Medium with 4.5 g/l D-glucose, 10% calf serum 4 mM glutamine, 50 units/ml penicillin, and 50 μg/ml streptomycin in a 37° C. humidified incubator equilibrated with 5% CO2. Cells were used at passages 5 or 6 for experiments. For cell protection assays, HF cells were seeded at a density of about 15,000 cells per cm2 onto 96-well culture plates and allowed to grow to confluence. […] After 2 hr., the absorbance at 490 nm was measured in a BioRad (Richmond, Calif.) Model 3550 plate-reader, using a reference wavelength of 655 nm. […] Absorbance measurements for blank wells, containing HF medium and XTT reagent but no cells, were also determined. […] Fresh HF medium was then added and cell viability assessed using the XTT reagent as described above. […]
Cell protection assays were performed as described under Experimental Procedures with salen-manganese complexes administered at the indicated concentrations and t-BHP at 0.5 mM. Cell viability was assessed using the XTT reagent as described and is expressed as the absorbance at 490 nm uncorrected for blank. […]

[2] = tested on: Human dermal fibroblasts (HF cells); assay: Protection against glucose and glucose oxidase toxicity in human fibroblasts (XTT); type: cell-based; conditions: glucose oxidase 0.019 units/ml
Procedure: Cytotoxicity studies were performed as described under Experimental procedures. Absorbance values, corrected by subtracting the blank signal of 0.17 OD units, are the means±sd of triplicate samples. Control cells (open circle) received no glucose oxidase. Catalase-treated (solid circle) cells received glucose oxidase (0.019) units/ml) as well as bovine liver catalase (290 units/ml). Other samples received the same dose of glucose oxidase and the indicated concentrations of salen manganese complex.
as §1, with “experiments.” for “experiments. For cell protection assays, HF cells were seeded at a density of about 15,000 cells per cm2 onto 96-well culture plates and allowed to grow to confluence.”

[3] = Catalase activity, polarographic oxygen electrode; type: biochemical; conditions: 10 μM salen manganese complex, 10 mM H2O2
Procedure: Catalase activity was assayed by monitoring the conversion of H2O2 to oxygen using a Clark-type polarographic oxygen electrode. The apparatus consisted of a Mini Clark Style electrode, a 600 μl Oxygen Uptake Chamber, and a Chemical Microsensor system, all obtained from Diamond General Corporation (Ann Arbor, Mich.). The electrode was calibrated by immersion in nitrogen- or air-equilibrated buffers using a Dual Chamber Calibration Cell (Diamond General, Corp.). Catalase reaction mixtures consisted of 50 mM sodium phosphate, pH 8.1,0.9% sodium chloride, and salen manganese complex and H2O2 at the indicated concentrations. The temperature of the water-jacketed reaction chamber, as well as the calibration buffers, was maintained at 25±0.1° C. Data were collected at 1 sec intervals and stored on a MacIntosh II computer using data acquisition hardware and software by Strawberry Tree, Inc. (Sunnyvale, Calif.). Dissolved oxygen concentrations were calculated as described previously (Del Rio et al. (1977) Anal. Biochem. 80: 409) based on a value of 2.5×10^−4 M oxygen for air-saturated buffer at 25° C. Linearity of the dissolved oxygen measurements within the experimental range was continued by determining the amount of oxygen generated from known quantities of H2O2 during exhaustive treatment with bovine liver catalase. Stock solutions of H2O2 were prepared by diluting a commercial 30% H2O2 solution in water and the H2O2 concentrations in these stocks were determined by absorbance at 240 nm, using a molar extinction coefficient of 44 (Stadtman, E R. et al. (1990) Proc. Natl. Acad. Sci. USA 87: 384). […] In the absence of salen manganese complex, H2O2 alone typically produced an early, relatively slow increase in signal. The slope of this increased signal was not proportional to H2O2 concentration (for example in one experiment, 1 and 10 Mm H2O2 yielded apparent rates of 12 and 14 μM oxygen per min, respectively) and may be due to an electrode artifact. […] Where presented, initial rates were calculated by determining the slope of the linear portion of time dependent plots of oxygen generation, usually comprising the first five seconds of the reaction. Unless otherwise indicated, these were corrected by subtracting the rate obtained with H2O2 alone. Where presented, endpoint oxygen generated was calculated from time-dependent plots, such as those shown in FIG. 14, as the difference between the baseline oxygen concentration immediately prior to-substrate addition and the maximal oxygen concentration achieved during the course of the reaction. All reactions subjected to these calculations were run for a sufficient time to ensure that oxygen generation had ceased.
Compounds were assayed for SOD as described under Experimental procedures, using cytochrome C as acceptor. […]

[4] = Peroxidase activity, H2O2-dependent oxidation of ABTS; type: biochemical; conditions: for peroxidase activity (relative, in words): 10 μM salen manganese complex, 0.2 mM H2O2
Procedure: (§2) Peroxidase activity was assayed by monitoring the hydrogen peroxide-dependent oxidation of 2,2′-azino-bis(3-ethylbenzthiazoline-6) sulfonic acid (ABTS) spectrophotometrically. Standard assay mixtures consisted of 50 mM sodium phosphate, pH 8.1, 0.9% sodium chloride, 0.5 mM ABTS, and H2O2 and salen manganese complex as indicated. Where indicated, 50 mM sodium phosphate buffers of pH 6.0 or pH 7.1 were substituted. Assays were conducted at 27±0.2° C. ABTS oxidation was monitored at 740 or 500 nm to eliminate interference by the salen manganese complexes, many of which absorb in the vicinity of the λmax of oxidized ABTS, and to avoid absorbance values that exceeded the linear range of the spectrophotometer. The amount of oxidized ABTS was estimated using an Δε740 of 20,300 M^−1cm^−1 or an Δε500 of 3400 M^−1cm^−1 calculated based upon the published molar extinction coefficient oat 405 nm (36,800).
Compounds were assayed for SOD as described under Experimental procedures, using cytochrome C as acceptor. The concentration of each compound showing half-maximal activity in this assay is presented. Catalase and peroxidase activities were conducted as described under Experimental Procedures, with 10 μM salen manganese complex. The H2O2 concentration was 10 mM and 0.2 mM in the catalase and peroxidase assays, respectively. Where denoted, “nd” means that the assay was not performed on this compound.
Catalase and peroxidase activities were assayed as described in Example 2. Catalase assays contained 10 μM salen-manganese complex and 10 mM hydrogen peroxide. Peroxidase assays contained 10 μM salen-manganese complex and 0.2 mM hydrogen peroxide. Glucose-glucose oxidase toxicity assays were performed using human dermal fibroblasts as described in Example 2.

Hippocampal slices = assay: Anoxia in hippocampal slices, EPSP recovery; type: cell-based, Sprague-Dawley rats; conditions: C7 50 μM
Description: Anoxia in hippocampal slices. […] A glass recording micropipet was positioned in CA1 stratum radiatum to record excitatory postsynaptic potential (EPSPs) generated by electrical stimulation of the Schaffer-commissural pathway by a bipolar stimulation electrode at a frequency of 0.033 Hz. During anoxic episodes, the oxygen supply was replaced with 100% N2 gas. N2 was supplied for 90 seconds following electrical silence after which O2 was reintroduced. Recovery of EPSPs (both slope and amplitude) was recorded for 50 minutes, at which time the final viability of the slices was determined, with viability being defined as the ability of the slice to generate a 3 mV EPSP.

[5] = Peroxidase activity toward t-BHP, ABTS oxidation; type: biochemical; conditions: 1 mM t-BHP versus same concentration of H2O2
Procedure: as §2
(In comparison, horseradish peroxidase utilized t-BHP with an ABTS oxidation rate that was about 5.4% of the rate with H2O2).

Molecule: CC(=O)[O][Mn]1[O]c2ccccc2C=NCCN=Cc2ccccc2[O]1 [Compound C31]
- reduced viability at 80 μM relative to 40 μM together with t-BHP [1]: possible synergistic toxicity with t-BHP
- protection against glucose and glucose oxidase (overall, in words) [2]: about equally as effective as C7

- catalase activity, initial rate (relative, in words) [3]: about twice as fast as C7
- catalase endpoint: total oxygen generated / turnovers completed before the reaction ceased (relative, in words) [3]: almost twice the amount of oxygen as C7
- catalase turnovers before the reaction ceased [3]: about 16 turnovers
Molecule: COc1cccc2c1[O][Mn]([O]C(C)=O)[O]c1c(cccc1OC)C=NCCN=C2 [Compound C32]
- peroxidase activity (relative, in words) [4]: fastest peroxidases
- protection against glucose and glucose oxidase (overall, in words) [2]: more protective than C43

Molecule: COc1cccc2c1[O][Mn]([O]C(C)=O)[O]c1c(cccc1OC)C=NCCCN=C2 [Compound C51]
- catalase activity, initial rate (relative, in words) [3]: reduced catalase and peroxidase activities
- peroxidase activity (relative, in words) [4]: reduced catalase and peroxidase activities

Molecule: Purified bovine SOD: purified bovine superoxide dismutase
- protection against anoxia-induced decrease in synaptic response in CA1 (EPSP slope and amplitude) (Hippocampal slices): no protection

Molecule: horseradish peroxidase
- ABTS oxidation rate with t-BHP as percent of the rate with H2O2 [5]: about 5.4%

B1: bovine liver catalase: bovine liver catalase enzyme used as reference (protein, UniProt P00432 2-527, looked up)
Catalase: ADNRDPASDQMKHWKEQRAAQKPDVLTTGGGNPVGDKLNSLTVGPRGPLLVQDVVFTDEMAHFDRERIPERVVHAKGAGAFGYFEVTHDITRYSKAKVFEHIGKRTPIAVRFSTVAGESGSADTVRDPRGFAVKFYTEDGNWDLVGNNTPIFFIRDALLFPSFIHSQKRNPQTHLKDPDMVWDFWSLRPESLHQVSFLFSDRGIPDGHRHMNGYGSHTFKLVNANGEAVYCKFHYKTDQGIKNLSVEDAARLAHEDPDYGLRDLFNAIATGNYPSWTLYIQVMTFSEAEIFPFNPFDLTKVWPHGDYPLIPVGKLVLNRNPVNYFAEVEQLAFDPSNMPPGIEPSPDKMLQGRLFAYPDTHRHRLGPNYLQIPVNCPYRARVANYQRDGPMCMMDNQGGAPNYYPNSFSAPEHQPSALEHRTHFSGDVQRFNSANDDNVTQVRTFYLKVLNEEQRKRLCENIAGHLKDAQLFIQKKAVKNFSDVHPEYGSRIQALLDKYNEEKPKNAVHTYVQHGSHLSAREKANL
- reduction of the initial rate of ABTS oxidation by C7 ([4]; 29 units/ml bovine liver catalase added, 10 mM H2O2): 55%
